Assay results as given in patent publication US20250058024A1, “INJECTABLE TOUGH AND VISCOELASTIC BTA HYDROGEL” (UNIVERSITEIT MAASTRICHT, priority 2021, published 2025).

Assays:
[1] = cited from earlier work
[2] = Storage and handling stability of activated ester synthons; assay type: physicochemical; conditions: for stability on handling in the lab: open handling in the lab, humid environment, 1H NMR
Text: With the knowledge of proton chemical shift and peak splitting pattern of products, we were able to analyse the crude reaction mixtures and quickly determine the relative amount of the products in the reaction mixture. Molecule 1 produced a 57% yield of 5 (monosubstituted) when treated with 1.0 equiv nucleophile. The desymmetrization of 2 behaved similarly, and after separation and characterization the crude reaction mixture produced a 38% yield of 6 (monosubstituted derivative). […] When the same reaction was run for two equivalents of hexylamine, 1 produced 7 (disubstituted) in 48% yield and 2 produced 8 in 54% yield. […] With promising results, we then turned to desymmetrization of the penta-fluorophenol synthon, 3. […] After ^1H NMR analysis, we were able to determine the ratio of substituted derivatives in the crude reaction mixture (a similar pattern of doublet/triplets and singlets was observed as in the desymmetrization of 1). […] Both desymmetrization reactions yielded higher than statisctical yields and the products were able to be readily isolated via column chromatography. When developing a reactive synthon for desymmetrization, stability and scalability are also important factors to consider. […] Purification of 1 and 2 required a large volume of solvents owing to limited solubility (100s of mL for 10s of mg), while 3 offered a short one-step work up with good solubility.
Due to its ease of synthesis, stability, desymmetrization, and purification, 3 was determined to be the best candidate to work with moving forward. […] Furthermore, the stability of the F5Ph esters on 3 also offers easy separation of desymmetrized intermediates using flash column chromatography.
In order to test the applicability of the reaction methodology to different amine based neuclopehiles/side-arms, we attempted a few different amines. […] (Scheme 3).

[3] = under an inert (and dry) atmosphere

SMILES	pka [1]	stability on handling in the lab [2]	stability on storage [2, 3]	further results
O=C1CCC(=O)N1O [N-hydroxy succinimide]	6.0	–	–	–
O=C(Oc1cccc([N+](=O)[O-])c1)c1cc(C(=O)Oc2cccc([N+](=O)[O-])c2)cc(C(=O)Oc2cccc([N+](=O)[O-])c2)c1 [compound 1]	–	started to hydrolyze	–	stability on storage ([2]; in a desiccator): stable in a desiccator when stored for a year
O=[N+]([O-])c1cccc(O)c1 [3-nitrophenol]	8.36	–	–	–
CCCCCCNC(=O)c1cc(C(=O)NCCCCCC)cc(C(=O)Oc2c(F)c(F)c(F)c(F)c2F)c1 [compound 10]	–	–	stable over months	–
Oc1c(F)c(F)c(F)c(F)c1F [2,3,4,5,6-pentafluorophenol]	5.4	–	–	–
O=C(Oc1ccc([N+](=O)[O-])cc1)c1cc(C(=O)Oc2ccc([N+](=O)[O-])cc2)cc(C(=O)Oc2ccc([N+](=O)[O-])cc2)c1 [compound 2]	–	started to hydrolyze	–	stability on storage ([2]; in a desiccator): stable in a desiccator when stored for a year
CCCCCCNC(=O)c1cc(C(=O)Oc2c(F)c(F)c(F)c(F)c2F)cc(C(=O)Oc2c(F)c(F)c(F)c(F)c2F)c1 [compound 9]	–	–	stable over months	–
O=C(Oc1c(F)c(F)c(F)c(F)c1F)c1cc(C(=O)Oc2c(F)c(F)c(F)c(F)c2F)cc(C(=O)Oc2c(F)c(F)c(F)c(F)c2F)c1 [compound 3, 1,3,5-benzenetricarbonylpentafluoroester]	–	stable for more than two years	stable over years	–
